Measurements reported in the OPERA property sets (Mansouri et al. 2018).

| Structure (SMILES) | logP |
| --- | --- |
| NC1=NCC(COc2ccc([N+](=O)[O-])cc2)O1 (configuration not stated) | 1.17 |
| COc1ccccc1OCC1CN=C(N)O1 (configuration not stated) | 0.85 |
| Cc1ccccc1OCC1CN=C(N)O1 (configuration not stated) | 1.69 |
| NC1=NCC(COc2ccccc2)O1 (configuration not stated) | 1.27 |
| NC1=NCC(COc2cccc([N+](=O)[O-])c2)O1 (configuration not stated) | 1.23 |
| NC1=NCC(COc2ccccc2Cl)O1 (configuration not stated) | 1.77 |

Second part, the compound after the results:

| logP | Structure (SMILES) |
| --- | --- |
| 2 | NC1=NCC(COc2ccc(Cl)cc2)O1 (configuration not stated) |
| 1.79 | Cc1ccc(OCC2CN=C(N)O2)cc1 (configuration not stated) |
| 0.6 | NC1=NCC(COc2ccc(N3CCOCC3)cc2)O1 (configuration not stated) |
| 1.24 | CCOc1ccccc1OCC1CN=C(N)O1 (configuration not stated) |
| 1.4 | CN(C)c1cccc(OCC2CN=C(N)O2)c1 (configuration not stated) |
| 1.26 | COc1ccc(OCC2CN=C(N)O2)cc1 (configuration not stated) |
